US8999970B2, “Administration of an anti-obesity compound to individuals with renal impairment” (Arena Pharmaceuticals, Inc., priority 2010, dated 2015)
Entries after “also recorded” stand apart in the source; their conditions may differ.

How the values were obtained:
[1] = Modeled steady state exposures following lorcaserin 10 mg BID (simulations and noncompartmental analysis from QD data); settings: for AUC24 hr / Cmax / t1/2: 10 mg BID Simulation, Steady State
Experimental: To better assess the potential implications of M1 and M5 levels in patients, steady state exposures (i.e. the state of equilibrium obtained at the end of a certain number of dosings) following lorcaserin 10 mg twice daily (BID) dosing were modeled using simulations and noncompartmental analysis based on data from pharmacokinetic studies with once daily (QD) dosing.
To better assess the potential implications of M1 levels in subjects with renal impairment, steady state M1 exposure following lorcaserin 10 mg BID administration was modeled using simulations and noncompartmental analysis based upon data from pharmacokinetic studies with once daily (QD) dosing. This modeling is discussed below in Example 5.
To better assess the potential implications of M1 and M5 levels, steady state exposures following lorcaserin 10 mg BID dosing were modeled using simulations and noncompartmental analysis based upon data from pharmacokinetic studies with once daily (QD) dosing.

[2] = test system: panel of receptors, ion channels and transporters; experiment: Pharmacological activity of metabolites at a panel of receptors, ion channels and transporters
[3] = APD356-009 study: M1 Cmax at Week 12 following lorcaserin 10 mg BID
[4] = Preclinical toxicology: M1 and M5 pharmacokinetics after oral administration of lorcaserin, 52 wk, mice
[5] = Preclinical toxicology: M1 and M5 pharmacokinetics after oral administration of lorcaserin, 52 wk, rats
[6] = lorcaserin 25 mg/kg/day oral, F
[7] = lorcaserin 25 mg/kg/day oral, M
[8] = lorcaserin 50 mg/kg/day oral, F
[9] = lorcaserin 50 mg/kg/day oral, M
[10] = lorcaserin 10 mg/kg/day oral, F
[11] = lorcaserin 10 mg/kg/day oral, M
[12] = lorcaserin 30 mg/kg/day oral, F
[13] = lorcaserin 30 mg/kg/day oral, M
[14] = lorcaserin 100 mg/kg/day oral, F
[15] = lorcaserin 100 mg/kg/day oral, M

## C[C@H]1CN(S(=O)(=O)O)CCc2ccc(Cl)cc21 [Compound M1, lorcaserin sulfamate]
[1]; Mild
  AUC24 hr: 4620 ng·h/mL
  Cmax: 207 ng/mL
  t1/2: 34.6 h
[1]; Moderate
  AUC24 hr: 9670 ng·h/mL
  Cmax: 414 ng/mL
  t1/2: 109 h
[1]; Normal
  AUC24 hr: 2790 ng·h/mL
  Cmax: 130 ng/mL
  t1/2: 30.0 h
[1]; Severe
  AUC24 hr: 25,500 hr · ng/mL
  Cmax: 1090 ng/mL
  t1/2: 99.2 h
[1]; five times the modeled mean of 1090 ng/mL
  Level some individuals with severe renal impairment might reach at steady state: over 5000 ng/mL; also recorded: more than 5000 ng/mL
[2]
  Activity at serotonin receptors or at a panel of more than 60 GPCRs, transporters and ion channels: neither metabolite is active
[2]; concentration of 10 μM
  Pharmacological activity against a panel of receptors, ion channels and transporters: pharmacologically inactive
[3]
  Mean Cmax observed in patients: 196 ng/mL
[4]; lorcaserin 5 mg/kg/day oral, F
  AUC0-inf: 75.2 µg·h/mL
  AUClast: 74.4 µg·h/mL
  Cmax: 14400 ng/mL
  tmax: 0.5 h
[4]; lorcaserin 5 mg/kg/day oral, M
  AUC0-inf: 61.2 µg·h/mL
  AUClast: 59.7 µg·h/mL
  Cmax: 10800 ng/mL
  tmax: 0.5 h
[4]; [6]
  AUC0-inf: 221 µg·h/mL
  AUClast: 217 µg·h/mL
  Cmax: 39800 ng/mL
  tmax: 0.5 h
[4]; [7]
  AUClast: 223 µg·h/mL
  Cmax: 25400 ng/mL
  tmax: 0.5 h
[4]; [8]
  AUC0-inf: 356 µg·h/mL
  AUClast: 345 µg·h/mL
  Cmax: 49100 ng/mL
  tmax: 0.5 h
[4]; [9]
  AUC0-inf: 319 µg·h/mL
  AUClast: 308 µg·h/mL
  Cmax: 42700 ng/mL
  tmax: 0.5 h
[5]; [10]
  AUC0-inf: 200 µg·h/mL
  AUClast: 193 µg·h/mL
  Cmax: 16300 ng/mL
  tmax: 1.0 h
[5]; [11]
  AUC0-inf: 175 µg·h/mL
  AUClast: 170 µg·h/mL
  Cmax: 15400 ng/mL
  tmax: 1.0 h
[5]; [12]
  AUC0-inf: 443 µg·h/mL
  AUClast: 412 µg·h/mL
  Cmax: 31700 ng/mL
  tmax: 4.0 h
[5]; [13]
  AUC0-inf: 338 µg·h/mL
  AUClast: 319 µg·h/mL
  Cmax: 23900 ng/mL
  tmax: 1.0 h
[5]; [14]
  AUC0-inf: 1480 µg·h/mL
  AUClast: 1050 µg·h/mL
  Cmax: 63700 ng/mL
  tmax: 2.0 h
[5]; [15]
  AUC0-inf: 927 µg·h/mL
  AUClast: 633 µg·h/mL
  Cmax: 36000 ng/mL
  tmax: 0.5 h
